Results as given in a polymer gas permeability compilation.

| Compound | CH4 permeability [Barrer] | CO2 permeability [Barrer] | H2 permeability [Barrer] | N2 permeability [Barrer] | O2 permeability [Barrer] |
| --- | --- | --- | --- | --- | --- |
| *C(=C(*)c1ccc(-c2ccccc2)cc1)c1ccccc1 (repeat unit) | 170 | 1300 | 440 | 65 | 180 |
| *C(=C(*)c1ccc(C(C)(C)C)cc1)c1ccc(O)cc1 (repeat unit) | 46 | 530 | 340 | 23 | 82 |
| *C(=C(*)c1ccc(C(C)(C)C)cc1)c1ccc(O[Si](C)(C)C(C)(C)C)cc1 (repeat unit) | 540 | 2300 | 1000 | 210 | 470 |
| *C(=C(*)c1ccc(O[Si](C)(C)C(C)(C)C)cc1)c1ccc(F)cc1 (repeat unit) | 140 | 800 | 315 | 55 | 140 |
| *OC(=O)c1ccc(C(=O)Oc2c(C)cc(C(C)(C)c3cc(C)c(O*)c(C)c3)cc2C)cc1 (repeat unit) | 1.32 | 4.7 | – | 1.43 | 7.3 |
| *OC(=O)c1ccc(C(=O)Oc2ccc(C(C)(C)c3ccc(O*)c(C)c3)cc2C)cc1 (repeat unit) | 0.17 | 5.8 | – | 0.23 | 1.12 |
| *OC(=O)c1ccc(C(=O)Oc2ccc(C3(c4ccc(O*)c(C)c4)OC(=O)c4ccccc43)cc2C)cc1 (repeat unit) | 0.18 | 5 | – | 0.15 | 1.04 |
| *OC(=O)c1ccc(C(=O)Oc2ccc(C3(c4ccc(O*)cc4)OC(=O)c4ccccc43)cc2)cc1 (repeat unit) | 0.47 | 11.7 | – | 0.41 | 2.15 |
| *OC1OC(COC(=O)NC(C)(C)C)C(*)C(OCC)C1OCC (repeat unit) | 9.45 | 94.5 | 73 | 4.3 | 16 |
| *OC1OC(OC(C)=O)C(*)C(O)C1OC(C)=O (repeat unit) | 0.15 | 3.5 | 12 | 0.14 | 0.735 |
| *OC1OC(OC(C)=O)C(*)C(OC(C)=O)C1OC(C)=O (repeat unit) | 0.2 | 6.56 | 15.5 | 0.23 | 1.46 |
| *O[Si](*)(C)C (repeat unit) | 1350 | 4180 | 890 | 351 | 800 |
| *O[Si](*)(C)CC (repeat unit) | 474 | 1510 | – | 160 | 332 |
| *O[Si](*)(C)CCC (repeat unit) | 570 | 2300 | – | 182 | 394 |
| *O[Si](*)(C)CCCCCCCC (repeat unit) | 313 | 932 | – | 88.3 | 196 |
| *O[Si](*)(C)c1ccccc1 (repeat unit) | 36 | 239 | – | 8.59 | 28.8 |
| *O[Si](C)(C)CC[Si](*)(C)C (repeat unit) | 597 | 1880 | – | – | 394 |
| *O[Si](C)(C)c1ccc([Si](*)(C)C)cc1 (repeat unit) | 12 | 65 | – | – | 11 |
| *O[Si](C)(C)c1cccc([Si](*)(C)C)c1 (repeat unit) | 106 | 518 | – | – | 74 |
| *Oc1c(-c2ccccc2)cc(*)cc1-c1ccccc1 (repeat unit) | 2.7 | 39.9 | 28 | 1.5 | 7.7 |
| *Oc1c(Br)cc(C(C)(C)c2cc(Br)c(OC(=O)c3cccc(C(*)=O)c3)c(Br)c2)cc1Br (repeat unit) | 0.142 | 4.93 | 18.1 | 0.179 | 1.29 |
| *Oc1c(Br)cc(C(c2cc(Br)c(OC(=O)c3cc(C(*)=O)cc(C(C)(C)C)c3)c(Br)c2)(C(F)(F)F)C(F)(F)F)cc1Br (repeat unit) | 3.36 | 85.1 | 149 | 4.47 | 22.1 |

| Compound | CH4 permeability [Barrer] | CO2 permeability [Barrer] | H2 permeability [Barrer] | N2 permeability [Barrer] | O2 permeability [Barrer] |
| --- | --- | --- | --- | --- | --- |
| *Oc1c(Br)cc(C(c2cc(Br)c(OC(=O)c3cccc(C(*)=O)c3)c(Br)c2)(C(F)(F)F)C(F)(F)F)cc1Br (repeat unit) | 0.597 | 35.6 | 65 | 1.07 | 6.75 |
| *Oc1c(Br)cc(C2(c3cc(Br)c(OC(=O)c4cc(C(*)=O)cc(C(C)(C)C)c4)c(Br)c3)OC(=O)c3ccccc32)cc1Br (repeat unit) | 1.09 | 30.6 | 67.4 | 1.19 | 7.41 |
| *Oc1c(Br)cc(C2(c3cc(Br)c(OC(=O)c4cccc(C(*)=O)c4)c(Br)c3)OC(=O)c3ccccc32)cc1Br (repeat unit) | 0.206 | 8.34 | 27.1 | 0.282 | 1.96 |
| *Oc1c(C)cc(*)c(C(=O)c2ccc(C)cc2)c1C (repeat unit) | 1.49 | 21.4 | – | 2.42 | 7.36 |
| *Oc1c(C)cc(*)c(C(=O)c2ccc([N+](=O)[O-])cc2)c1C (repeat unit) | 0.76 | 11.4 | – | 1.27 | 5.04 |
| *Oc1c(C)cc(*)c(C(=O)c2ccccc2)c1C (repeat unit) | 0.95 | 14.3 | – | 1.59 | 6 |
| *Oc1c(C)cc(-c2cc(C)c(Oc3ccc(S(=O)(=O)c4ccc(*)cc4)cc3)c(C)c2)cc1C (repeat unit) | 0.925 | 18.6 | 11.1 | 0.91 | 4.55 |
| *Oc1c(C)cc(-c2cc(C)c(Oc3ccc(S(=O)(=O)c4ccc(*)cc4)cc3)c(C)c2C)c(C)c1C (repeat unit) | 0.94 | 25.5 | 63 | 1.2 | 6 |
| *Oc1c(C)cc(C(C)(C)c2cc(C)c(OC(*)=O)c(C)c2)cc1C (repeat unit) | 0.89 | 18.6 | 32 | 1.1 | 5.6 |
| *Oc1c(C)cc(C(C)(C)c2cc(C)c(OC(=O)c3cc(C(*)=O)cc(C(C)(C)C)c3)c(C)c2)cc1C (repeat unit) | 2.72 | 45.3 | 96 | 2.6 | 12.7 |
| *Oc1c(C)cc(C(C)(C)c2cc(C)c(OC(=O)c3cccc(C(*)=O)c3)c(Br)c2)cc1Br (repeat unit) | 0.151 | 5.45 | 23.3 | 0.219 | 1.52 |
| *Oc1c(C)cc(C(C)(C)c2cc(C)c(Oc3ccc(S(=O)(=O)c4ccc(*)cc4)cc3)c(C)c2)cc1C (repeat unit) | 0.95 | 21 | – | 1.06 | 5.6 |
| *Oc1c(C)cc(C(C)(C)c2ccc(C(C)(C)c3cc(C)c(Oc4ccc(S(=O)(=O)c5ccc(*)cc5)cc4)c(C)c3)cc2)cc1C (repeat unit) | 0.6 | 13.2 | – | 0.571 | 3.2 |
| *Oc1c(C)cc(C(c2cc(C)c(OC(*)=O)c(C)c2)(C(F)(F)F)C(F)(F)F)cc1C (repeat unit) | 2.79 | 71.5 | 126 | 4.75 | 20.9 |
| *Oc1cc(C)c(C(c2cc(C(C)C)c(Oc3ccc(S(=O)(=O)c4ccc(*)cc4)cc3)cc2C)c2ccccc2C(=O)O)cc1C(C)C (repeat unit) | 1.13 | 25.1 | 49.6 | 0.757 | 4.53 |
| *Oc1cc(C)c(C2(c3cc(C(C)C)c(Oc4ccc(S(=O)(=O)c5ccc(*)cc5)cc4)cc3C)OC(=O)c3ccccc32)cc1C(C)C (repeat unit) | 0.928 | 19.4 | 30.6 | 0.699 | 4.85 |
| *Oc1cc2c(cc1O*)C1(CC2(C)C)CC(C)(C)c2cc3c(cc21)Oc1c(C#N)c(*)c(*)c(C#N)c1O3 (repeat unit) | 298 | 5090 | 2280 | 256 | 913 |
| *Oc1cc2c(cc1O*)C1(CC2(C)C)CC(C)(C)c2cc3c(cc21)Oc1c(CN)c(*)c(*)c(CN)c1O3 (repeat unit) | 257 | 1590 | 2280 | 176 | 752 |
| *Oc1cc2c(cc1O*)C1(CC2(C)C)CC(C)(C)c2cc3c(cc21)Oc1cc2nc4cc5c(cc4nc2cc1O3)C(C)(C)CC51CC(C)(C)c2cc3nc4cc(*)c(*)cc4nc3cc21 (repeat unit) | 62 | 1100 | 860 | 42 | 190 |
| *Oc1cc2c(cc1O*)C1(c3cc(C)c(C)cc3-2)c2cc(C)c(C)cc2-c2cc3c(cc21)Oc1c(C#N)c(*)c(*)c(C#N)c1O3 (repeat unit) | 1100 | 13100 | 6700 | 658 | 2360 |
| *Oc1ccc(-c2c(-c3ccc(Br)cc3)c(-c3ccc(Br)cc3)c(-c3ccc4c(c3)Oc3c(C#N)c(*)c(*)c(C#N)c3O4)c(-c3ccc(Br)cc3)c2-c2ccc(Br)cc2)cc1O* (repeat unit) | 102 | 1430 | 694 | 54 | 203 |
